# From PubChem BioAssay (NCI)
# Where “and” joins values, the source holds several entries; their conditions need not be identical. Identical values can stand only once.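 Exposure lasted 48 hours, with cells grown in 96-well plates and compounds tested at five concentrations. GI50 is the concentration that inhibits growth by half. TGI is the concentration that stops growth completely.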
# What was measured:
# Experiment in all cases: NCI-60 cell line screen, 48 h
# COLO 205 colon = system: COLO 205 colon
# HCT-116 colon = system: HCT-116 colon
# NCI-H23 lung = system: NCI-H23 lung
# LOX IMVI melanoma = system: LOX IMVI melanoma
# SF-295 CNS = system: SF-295 CNS
# SF-268 CNS = system: SF-268 CNS
# SF-539 CNS = system: SF-539 CNS
# OVCAR-4 ovarian = system: OVCAR-4 ovarian
Structure (SMILES),GI50 (COLO 205 colon),TGI (COLO 205 colon),GI50 (HCT-116 colon),TGI (HCT-116 colon),GI50 (NCI-H23 lung),TGI (NCI-H23 lung),GI50 (LOX IMVI melanoma),TGI (LOX IMVI melanoma),GI50 (SF-295 CNS),TGI (SF-295 CNS),GI50 (SF-268 CNS),TGI (SF-268 CNS),GI50 (SF-539 CNS),TGI (SF-539 CNS),GI50 (OVCAR-4 ovarian),TGI (OVCAR-4 ovarian)
CC(C)=CCNc1ncnc2c1ncn2C1OC(CO)C(O)C1O (configuration not stated),3.96 µM,550 µM,0.499 µM,5.77 µM,2.81 µM,125 µM,0.353 µM,1.5 µM,0.671 µM,2.6 µM,2 µM,> 432 µM,2.22 µM,7.65 µM,0.793 µM,> 1000 µM
N#Cc1c(NN)n(C2OC(CO)C(O)C2O)c2ncnc(N)c12 (configuration not stated),–,0.0424 µM,–,–,0.218 µM,2.47 µM,0.0513 µM,0.328 µM,0.344 µM,47.8 µM,0.171 µM,> 45.3 µM,0.337 µM,1.48 µM,0.0538 µM,3.24 µM
C=C1CC[C@@H]2[C@](C)(COC(C)=O)[C@H](OC(C)=O)CC[C@@]2(C)[C@@H]1CC(Sc1ccccc1)C1=CCOC1=O (some centres not stated),1.49 µM,3.98 µM,0.854 µM,2.18 µM,1.78 µM,3.67 µM,0.297 µM,1.19 µM,4.12 µM,27.3 µM,1.71 µM,3.55 µM,–,–,1.36 µM,3.11 µM
CCN(CC)CCC(CNc1ccnc2cc(Cl)ccc12)c1ccc(OC)cc1 (configuration not stated),1.9 µM and 1.34 µM,4.3 µM and 2.95 µM,5.15 µM and 1.87 µM,24.7 µM and 14.4 µM,9.4 µM and 10 µM,26.9 µM and 28.6 µM,1.88 µM and 1.6 µM,4.79 µM and 4.15 µM,2.87 µM and 1.95 µM,10.2 µM and 7.8 µM,4.19 µM and 5.23 µM,18.4 µM and 21.4 µM,1.56 µM and 1.7 µM,3.17 µM and 3.6 µM,3.7 µM and 4.66 µM,20.3 µM and 28.1 µM
COc1cc(N(CCC#N)CCC#N)ccc1/C(N=Nc1ccc([N+](=O)[O-])cc1)=N/NC(=O)c1cc(Br)ccc1O,24 µg/mL,45.9 µg/mL,29.9 µg/mL,91.9 µg/mL,51.2 µg/mL,> 150 µg/mL,29 µg/mL,110 µg/mL,29.9 µg/mL,69.6 µg/mL,19.3 µg/mL,78.7 µg/mL,33.2 µg/mL,122 µg/mL,21.5 µg/mL,62.4 µg/mL
Cc1cc(I)cc(CN(C)CCCN2CCCCCCC2)c1O,17.4 µM,37.1 µM,11.8 µM,28.3 µM,18.1 µM,48.7 µM,16.2 µM,30.9 µM,7.38 µM,23 µM,14.9 µM,31.3 µM,15.1 µM,29.2 µM,19.7 µM,58.5 µM
Cn1c2ccccc2c2c3c(c4c5cc(Br)ccc5n(C)c4c21)C(=O)N(O)C3=O,–,–,–,–,–,–,–,–,0.217 µM,0.981 µM,–,–,0.0403 µM,0.323 µM,–,–
COc1ccc(-n2cc(-c3cc(OC)c(OC)c(OC)c3)c(C(=O)C(F)(F)F)c2C)cc1,65.2 µM,> 100 µM,6.93 µM,> 100 µM,8.53 µM,> 100 µM,47.4 µM,> 100 µM,> 100 µM,> 100 µM,99.5 µM,> 100 µM,> 100 µM,> 100 µM,9.28 µM,> 100 µM
O=C(O)CCC(=O)c1ccc[nH]1,–,> 100 µM,–,> 100 µM,–,> 100 µM,–,> 100 µM,–,> 100 µM,–,> 100 µM,–,> 100 µM,–,> 100 µM
CCN1CCN(C(c2ccc(C(F)(F)F)cc2)c2ccc3cccnc3c2O)CC1 (configuration not stated),3.35 µM,13.1 µM,3.06 µM,13.5 µM,2.35 µM,14.9 µM,1.71 µM,10.5 µM,0.313 µM,4.39 µM,1.36 µM,12.8 µM,1.68 µM,10.1 µM,2.36 µM,14.3 µM
CCCCCCCCCCCCOC1C(C(COC2OC(C3COC(C)(C)O3)C3OC(C)(C)OC23)NC(=O)Nc2ccc(C(=O)O)cc2)OC2OC(C)(C)OC21 (configuration not stated),2.71 µM,9.05 µM,2.87 µM,10.8 µM,2.64 µM,6.83 µM,3.23 µM,10.3 µM,2.15 µM,5.69 µM,3.37 µM,13.7 µM,1.72 µM,3.39 µM,3.56 µM,15.3 µM
Cn1nc(N)c2cc([C@@H]3Nc4ccc5[nH]ncc5c4[C@H]4C5CCC(C5)[C@@H]34)ccc21 (some centres not stated),0.431 µM,13 µM,0.448 µM,13.9 µM,0.643 µM,17.4 µM,0.515 µM,15.7 µM,0.32 µM,11.7 µM,1.32 µM,41 µM,0.333 µM,5.09 µM,2.67 µM,> 95 µM
CN1CCN(CCOc2ccc(-c3cnc4c(-c5ccccc5F)cnn4c3)cc2)CC1,–,–,–,–,1.7 µM,3.19 µM,1.81 µM,3.27 µM,1.76 µM,3.2 µM,2.04 µM,4.73 µM,1.59 µM,2.96 µM,1.55 µM,4.49 µM
CCOC(=O)CCCn1c(SC)nc2[nH]cc(-c3ccccc3)c2c1=O,24.2 µM,56.1 µM,14.1 µM,34 µM,11.6 µM,34.6 µM,11.3 µM,25.8 µM,11.6 µM,34.2 µM,20.8 µM,87.8 µM,18.4 µM,46.1 µM,31.4 µM,80.8 µM
CCCCCCNC(=O)c1cc(NCc2cc(O)ccc2O)ccc1O,10.8 µM,28.6 µM,4.75 µM,24.9 µM,13.1 µM,33.1 µM,6.84 µM,22.4 µM,19.4 µM,49.2 µM,3.79 µM,18.1 µM,1.91 µM,6.06 µM,5.62 µM,19.3 µM
C=C1C(=O)O[C@@H]2C[C@@H]1CC/C(C)=C/CC/C(C)=C/CC[C@@]2(C)O,34.1 µM,99.2 µM,3.06 µM,11.9 µM,4.14 µM,16.2 µM,5.49 µM,> 100 µM,16.6 µM,32.2 µM,16.3 µM,35.6 µM,22.3 µM,42.5 µM,34.6 µM,> 100 µM
